Measured values from paper PMC3543423, “Structure Prediction and Validation of the ERK8 Kinase Domain” (PLoS ONE, 2013).

Target: T1, ERK8 (Homo sapiens, UniProt Q8TD08)
T1 construct: gene MAPK15; full-length GST-ERK8 (baculovirus-expressed, GST-ERK8Bac)
T1 sequence (Q8TD08 1-544): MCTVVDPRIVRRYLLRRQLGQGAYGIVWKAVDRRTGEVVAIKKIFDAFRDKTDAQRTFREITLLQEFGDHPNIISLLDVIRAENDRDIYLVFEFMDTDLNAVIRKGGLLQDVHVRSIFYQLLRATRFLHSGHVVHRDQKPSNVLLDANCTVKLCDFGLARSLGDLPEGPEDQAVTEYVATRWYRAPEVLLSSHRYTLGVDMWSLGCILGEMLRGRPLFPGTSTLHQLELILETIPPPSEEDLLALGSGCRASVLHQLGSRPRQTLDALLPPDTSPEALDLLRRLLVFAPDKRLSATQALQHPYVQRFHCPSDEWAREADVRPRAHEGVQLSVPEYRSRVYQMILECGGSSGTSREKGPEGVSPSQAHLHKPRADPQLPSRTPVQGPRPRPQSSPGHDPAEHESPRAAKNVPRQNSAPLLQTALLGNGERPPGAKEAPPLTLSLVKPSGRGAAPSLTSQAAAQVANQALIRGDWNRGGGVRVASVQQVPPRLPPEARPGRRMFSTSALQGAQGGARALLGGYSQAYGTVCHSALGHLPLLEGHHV
Assay: radiometric [γ-32P]ATP kinase assay with MBP substrate, dose/response; ATP competition; reduced inhibition of F92I mutant
Assay type: biochemical

Compound	IC50 [µM]
CCOC(=O)c1c(C(=O)CSc2nc(-c3ccccc3)cc(-c3ccc(OC)cc3)c2C#N)sc2c1CCCC2 [ITT53]	27
COc1ccccc1NC(=O)c1cccc(Nc2nc(-c3ccccc3)c3cc(Br)ccc3n2)c1 [ITT57]	17
